Laboratory results published in US20090215883A1, “Pharmaceutical formulation comprising taxane, a solid composition of taxane, a process for preparing said solid composition of taxane, a solubilizing composition of said solid composition of taxane, and a kit for the injectable formulation of taxane” (ERIOCHEM S.A., priority 2006, published 2009).

Assay: Laboratory tests of direct dissolution in tensoactives
Type: physicochemical

Question: What does the source list for `CC(=O)O[C@@]12CO[C@@H]1C[C@H](O)[C@@]1(C)C(=O)[C@H](O)C3=C(C)[C@@H](OC(=O)[C@H](O)[C@@H](NC(=O)OC(C)(C)C)c4ccccc4)C[C@@](O)([C@@H](OC(=O)c4ccccc4)[C@H]21)C3(C)C` [trihydrate docetaxel, docetaxel]?
Answer: Direct dissolution in pure polysorbate 80 (pure polysorbate 80): cannot be dissolved directly; Direct dissolution in tensoactive aqueous solution (tensoactive aqueous solution (aqueous Solutol HS15 for the solid composition), no organic solvent): cannot be dissolved directly
